Measured values published in US11512053B2, “Arginine methyltransferase inhibitors and uses thereof” (priority 2013, dated 2022).
Like-named read-outs stand apart in the source and are kept apart here.

Tests used:
[1] = molecular target: full-length human PRMT1 isoform 1 (GST-tagged) (Homo sapiens, UniProt Q99873); experiment: PRMT1 Biochemical Assay (3H-SAM Flashplate, peptide substrate)
Text: (§1) General Materials. S-adenosylmethionine (SAM), S-adenosylhomocysteine (SAH), bicine, Tween20, dimethylsulfoxide (DMSO), bovine skin gelatin (BSG), and Tris(2-carboxyethyl)phosphine hydrochloride solution (TCEP) were purchased from Sigma-Aldrich at the highest level of purity possible. ^3H-SAM was purchase from American Radiolabeled Chemicals with a specific activity of 80 Ci/mmol. 384-well streptavidin Flashplates were purchased from PerkinElmer.
Protein Expression. Recombinant baculovirus were generated according to Bac-to-Bac kit instructions (Life Technologies). […] Infections were carried out at 27° C. for 48 hours, harvested by centrifugation, and stored at −80° C. for purification.
Protein Purification. […] GST-tagged PRMT1 was eluted with 50 mM Tris, 2 mM glutathione, pH 7.8, dialysed in buffer A and concentrated to 1 mg/mL.
General Procedure for PRMT1 Enzyme Assays on Peptide Substrates. The assays were all performed in a buffer consisting of 20 mM Bicine (pH=7.6), 1 mM TCEP, 0.005% BSG, and 0.002% Tween 20, prepared on the day of use. […] DMSO (1 ul) was added to Columns 11, 12, 23, 24, rows A-H for the maximum signal control and 1 ul of SAH, a known product and inhibitor of PRMT1, was added to columns 11, 12, 23, 24, rows I-P for the minimum signal control. A cocktail (40 ul) containing the PRMT1 enzyme was added by Multidrop Combi (Thermo-Fisher). The compounds were allowed to incubate with PRMT1 for 30 min at room temperature, then a cocktail (10 ul) containing SAM and peptide was added to initiate the reaction (final volume=51 ul). […] The assays were stopped by the addition of non-radiolabeled SAM (10 ul) to a final concentration of 300 uM, which dilutes the ^3H-SAM to a level where its incorporation into the peptide substrate is no longer detectable. 50 ul of the reaction in the 384-well polypropylene plate was then transferred to a 384-well Flashplate and the biotinylated peptides were allowed to bind to the streptavidin surface for at least 1 hour before being washed once with 0.1% Tween20 in a Biotek ELx405 plate washer. The plates were then read in a PerkinElmer TopCount plate reader to measure the quantity of ^3H-labeled peptide bound to the Flashplate surface, measured as disintegrations per minute (dpm) or alternatively, referred to as counts per minute (cpm).
Where dpm=disintegrations per minute, cmpd=signal in assay well, and min and max are the respective minimum and maximum signal controls.
Where top and bottom are the normally allowed to float, but may be fixed at 100 or 0 respectively in a 3-parameter fit. The Hill Coefficient normally allowed to float but may also be fixed at 1 in a 3-parameter fit. Y is the % inhibition and X is the compound concentration.

[2] = molecular target: full-length human PRMT8 isoform 1 (Homo sapiens, UniProt Q9NR22); experiment: PRMT8 Biochemical Assay (3H-SAM Flashplate, peptide substrate); conditions: read-out: Biochemical IC50 PRMT8
full-length human PRMT8 isoform 1, sequence (Q9NR22 whole entry, canonical isoform): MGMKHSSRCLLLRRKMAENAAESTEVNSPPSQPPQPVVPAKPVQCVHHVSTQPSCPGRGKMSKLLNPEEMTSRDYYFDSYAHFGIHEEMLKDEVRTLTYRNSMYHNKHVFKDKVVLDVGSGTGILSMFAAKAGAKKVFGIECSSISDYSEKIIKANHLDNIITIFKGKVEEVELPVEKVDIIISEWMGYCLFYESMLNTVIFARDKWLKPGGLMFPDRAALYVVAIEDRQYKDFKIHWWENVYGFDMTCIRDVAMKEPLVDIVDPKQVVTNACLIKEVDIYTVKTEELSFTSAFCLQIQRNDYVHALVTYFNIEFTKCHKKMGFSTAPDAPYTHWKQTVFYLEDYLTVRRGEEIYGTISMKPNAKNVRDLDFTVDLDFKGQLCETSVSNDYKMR
Text: as §1, with “(BSG), isopropyl-β-D-thiogalactopyranoside (IPTG),” for “(BSG),”
Substrates. Peptide representative of human histone H4 residues 31-45 was synthesized with an N-terminal linker-affinity tag motif and a C-terminal amide cap by 21st Century Biochemicals. The peptide was purified by high-performance liquid chromatography (HPLC) to greater than 95% purity and confirmed by liquid chromatography mass spectrometry (LC-MS). The sequence was Biot-Ahx-[…]-amide (SEQ ID NO.:8).
The resulting construct encodes an N-terminal GST tag and a thrombin cleavage sequence ([…] […] […] […] SPEF) (SEQ ID NO.:9) fused directly to Met 1 of PRMT8.
Protein Expression. E. coli (BL21(DE3) Gold, Stratagene) made competent by the CaCl2) method were transformed with the PRMT8 construct and ampicillin selection. Protein over-expression was accomplished by growing the PRMT8 expressing E. coli clone and inducing expression with 0.3 mM IPTG at 16° C. The culture was grown for 12 hours, harvested by centrifugation, and stored at −80° C. for purification.
Protein Purification. […] GST-tagged PRMT8 was eluted with 50 mM Tris, 2 mM glutathione, pH 7.8. Pooled fractions were cleaved by thrombin (10U) and dialysed in buffer A. GST was removed by reloading the cleaved protein sample onto glutathione sepharose column and PRMT8 was collected in the flow-through fractions. PRMT8 was purified further by ceramic hydroxyapatite chromatography. The column was washed with 50 mM phosphate buffer, 100 mM NaCl, 5% glycerol, 5 mM β-mercaptoethanol, pH 7.8 and PRMT8 was eluted by 100 mM phosphate in the same buffer. Protein was concentrated and buffer was exchanged to 50 mM Tris, 300 mM NaCl, 10% glycerol, 5 mM β-mercaptoethanol, pH 7.8 by ultrafiltration. The purity of recovered protein was 89%.
General Procedure for PRMT8 Enzyme Assays on Peptide Substrates. The assays were all performed in a buffer consisting of 20 mM Bicine (pH=7.6), 1 mM TCEP, 0.005% BSG, and 0.002% Tween 20, prepared on the day of use. Compounds in 100% DMSO (1 ul) were spotted into a polypropylene 384-well V-bottom plates (Greiner) using a Platemate Plus outfitted with a 384-channel head (Thermo Scientific). DMSO (1 ul) was added to Columns 11, 12, 23, 24, rows A-H for the maximum signal control and 1 ul of SAH, a known product and inhibitor of PRMT8, was added to columns 11, 12, 23, 24, rows I-P for the minimum signal control. A cocktail (40 ul) containing the PRMT8 enzyme was added by Multidrop Combi (Thermo-Fisher). The compounds were allowed to incubate with PRMT8 for 30 min at room temperature, then a cocktail (10 ul) containing ^3H-SAM and peptide was added to initiate the reaction (final volume=51 ul). The final concentrations of the components were as follows: PRMT8 was 1.5 nM, ^3H-SAM was 50 nM, non-radiolabeled SAM was 550 nM, peptide was 150 nM, SAH in the minimum signal control wells was 1 mM, and the DMSO concentration was 2%. The assays were stopped by the addition of non-radiolabeled SAM (10 ul) to a final concentration of 400 uM, which dilutes the ^3H-SAM to a level where its incorporation into the peptide substrate is no longer detectable. 50 ul of the reaction in the 384-well polypropylene plate was then transferred to a 384-well Flashplate and the biotinylated peptides were allowed to bind to the streptavidin surface for at least 1 hour before being washed once with 0.1% Tween20 in a Biotek ELx405 plate washer. […]

[3] = single experiment or average of multiple experiments

full-length human PRMT1 isoform 1 (GST-tagged), sequence (Q99873 with tags, fused parts or gaps): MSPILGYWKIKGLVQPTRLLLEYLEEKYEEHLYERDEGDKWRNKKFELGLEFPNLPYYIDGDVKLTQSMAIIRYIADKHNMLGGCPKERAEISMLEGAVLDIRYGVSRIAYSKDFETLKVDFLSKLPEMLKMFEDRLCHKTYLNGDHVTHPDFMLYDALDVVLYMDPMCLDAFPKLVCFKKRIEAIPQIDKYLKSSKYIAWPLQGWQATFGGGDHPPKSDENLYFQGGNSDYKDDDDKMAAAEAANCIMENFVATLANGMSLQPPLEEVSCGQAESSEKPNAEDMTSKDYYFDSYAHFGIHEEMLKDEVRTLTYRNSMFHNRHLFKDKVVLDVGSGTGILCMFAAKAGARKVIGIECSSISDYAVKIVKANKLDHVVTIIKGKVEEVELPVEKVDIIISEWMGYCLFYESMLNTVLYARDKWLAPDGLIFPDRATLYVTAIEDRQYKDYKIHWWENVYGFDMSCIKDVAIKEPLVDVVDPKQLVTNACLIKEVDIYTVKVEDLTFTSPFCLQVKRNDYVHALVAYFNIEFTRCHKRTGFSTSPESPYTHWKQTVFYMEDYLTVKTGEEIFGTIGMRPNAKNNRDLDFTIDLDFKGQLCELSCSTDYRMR

Row | SMILES | IC50 [1] [nM] | IC50 [1, 3] [nM] | IC50 [2] [nM] | IC50 [2, 3] [nM]
1 | CNCCN(C)Cc1c[nH]nc1[C@H]1CC[C@@]2(CCOC2)CC1 [Compound 141] | < 100 | 10.7 | < 100 | 29.7
2 | CNCCN(C)Cc1c[nH]nc1[C@H]1CC[C@@H](N(CC2CCOCC2)C(=O)CC(C)C)CC1 [Compound 107] | < 100 | 21.2 | < 100 | 55.4
3 | CNCCN(C)Cc1c[nH]nc1C1CCC(N(CC(C)C)C(=O)CC2CCOCC2)CC1 (centres unmarked) [Compound 114] | 101 to 1000 | 101 | 101 to 1000 | 340
4 | CNCCN(C)Cc1c[nH]nc1C1CCC(OCC(C)C)CC1 (centres unmarked) [Compound 153] | < 100 | 23.2 |  | 
5 | CCOC1CC(OCC)CC2(CCC(c3n[nH]cc3CN(C)CCNC)CC2)C1 (centres unmarked) [Compound 159] | < 100 | 19.7 |  | 
6 | CNCCN(C)Cc1c[nH]nc1[C@H]1CC[C@H](OC2CCCCC2)CC1 [Compound 139] | < 100 | 30.5 | 101 to 1000 | 116
7 | CNCCN(C)Cc1c[nH]nc1[C@H]1CC[C@@H](OC2CCCCC2)CC1 [Compound 140] | < 100 | 15.6 | < 100 | 33.9
8 | CNCCN(C)Cc1c[nH]nc1[C@H]1CC[C@H](COC)CC1 [Compound 167] | < 100 | 11 | < 100 | 13
9 | CNCCN(C)Cc1c[nH]nc1[C@H]1CC[C@H](OCCOc2ccccc2)CC1 [Compound 187] | 101 to 1000 | 193 | 101 to 1000 | 185
10 | CNCCN(C)Cc1c[nH]nc1[C@H]1CC[C@@H](COC)CC1 [Compound 166] | < 100 | 18 | < 100 | 23
11 | CNCCN(C)Cc1c[nH]nc1[C@H]1CC[C@]2(CCC(C)(C)O2)CC1 [Compound 104] | < 100 | 8.04 | < 100 | 11.6
12 | CNCCN(C)Cc1c[nH]nc1[C@H]1CC[C@@]2(CCN(CC(C)C)C2=O)CC1 [Compound 129] | < 100 | 23.6 | < 100 | 83.7
13 | CNCCN(C)Cc1c[nH]nc1C1CCC2(CCOCC2)CC1 [Compound 178] | < 100 | 5.8 | < 100 | 20.5
14 | CNCCN(C)Cc1c[nH]nc1C1CCC2(CC1)CCC(F)(F)CC2 [Compound 130] | < 100 | 3.4 | < 100 | 4.5
15 | CNCCN(C)Cc1c[nH]nc1[C@H]1CC[C@@]2(CCN(Cc3ccccc3)C2=O)CC1 [Compound 127] | < 100 | 16.5 | < 100 | 47.8
16 | CNCCN(C)Cc1c[nH]nc1[C@H]1CC[C@@H](C(C)C)CC1 [Compound 181] | < 100 | 4.7 |  | 
17 | CC[C@H]1CC[C@H](c2n[nH]cc2CN(C)CCNC)CC1 [Compound 148] | < 100 | 4.8 |  | 
18 | CNCCN(C)Cc1c[nH]nc1C1CCCC(COCCOC)C1 (centres unmarked) [Compound 112] | < 100 | 18.9 | < 100 | 69.2

Row | SMILES | IC50 [1] [nM] | IC50 [1, 3] [nM] | IC50 [2] [nM] | IC50 [2, 3] [nM]
19 | CNCCN(C)Cc1c[nH]nc1[C@H]1CC[C@H](C(C)C)CC1 [Compound 180] | < 100 | 4.9 |  | 
20 | CNCCN(C)Cc1c[nH]nc1C1CCC2(CC1)CC(=O)N(C)C2 (centres unmarked) [Compound 157] | < 100 | 18.5 |  | 
21 | CNCCN(C)Cc1c[nH]nc1C1CCC2(CC1)CN(C)C(=O)N2C (centres unmarked) [Compound 172] | < 100 | 23 |  | 
22 | CNCCN(C)Cc1c[nH]nc1C1CCC2(CC1)CN(C)C(=O)N2CC(C)C (centres unmarked) [Compound 151] | < 100 | 36.9 |  | 
23 | CNCCN(C)Cc1c[nH]nc1C1CCC(CCOC)(CCOC)CC1 [Compound 174] | < 100 | 15.5 |  | 
24 | CNCCN(C)Cc1c[nH]nc1C1CCC2(CC1)OCC(C(C)C)CO2 (centres unmarked) [Compound 150] | < 100 | 44 |  | 
25 | CCN1CC2(CCC(c3n[nH]cc3CN(C)CCNC)CC2)N(C)C1=O (centres unmarked) [Compound 154] | < 100 | 17.7 |  | 
26 | CNCCN(C)Cc1c[nH]nc1[C@H]1CC[C@@]2(CC1)CC(=O)N(CC(C)C)C2 [Compound 156] | < 100 | 17.2 |  | 
27 | CNCCN(C)Cc1c[nH]nc1C1CCC2(CC1)CCN(C)C2=O (centres unmarked) [Compound 152] | < 100 | 14.2 |  | 
28 | CNCCN(C)Cc1c[nH]nc1C1=CCC(CCOC)(CCOC)CC1 [Compound 173] | < 100 | 23.2 |  | 
29 | CNCCN(C)Cc1c[nH]nc1[C@H]1CC[C@]2(CC1)CC(=O)N(CC(C)C)C2 [Compound 155] | < 100 | 31.5 |  | 
30 | CNCCN(C)Cc1c[nH]nc1C1CCC2(CC1)OCCCO2 [Compound 160] | < 100 | 21.8 |  | 
31 | CNCCN(C)Cc1c[nH]nc1C1CCC2(CC1)CN(CC(C)C)C(=O)N2C (centres unmarked) [Compound 145] | < 100 | 26.2 |  | 
32 | CNCCN(C)Cc1c[nH]nc1C1CCC2(CC1)C(=O)N(C)C(=O)N2C (centres unmarked) [Compound 171] | < 100 | 14.7 |  | 
33 | CNCCN(C)Cc1c[nH]nc1C1CCC2(CC1)CC(=O)N(Cc1ccc(OC)cc1)C2 (centres unmarked) [Compound 146] | < 100 | 14 |  | 
34 | CNCCN(C)Cc1c[nH]nc1C1CCC(C)CC1 (centres unmarked) [Compound 149] | < 100 | 4.5 |  | 
35 | CNCCN(C)Cc1c[nH]nc1C1CCC2(CC1)CNC(=O)C2 (centres unmarked) [Compound 147] | < 100 | 18.3 |  | 
